From patent US7456197B2, “Pyridinium cationic lipids as gene transfer agents” (The Texas A&M University System, priority 2003, dated 2008)

Assay: Critical (phase transition) temperature Tc by differential scanning calorimetry
Format: physicochemical
Conditions: for Tc (critical temperature), Pure: pure lipid; for Tc (phase transition temperature): lipids 21 and 25, DSC, heating rate 5° C./minute
Procedure: General. Melting points for the diols and the phase transition temperature Tc for the cationic lipids were determined by differential scanning calorimetry (DSC), using a TA-Instruments Q100 DSC, and a heating rate of 5° C./minute. The IR spectra were recorded on a Nicolet Avatar 360 FTIR spectrophotometer in the range 650-4000 cm^−1 using a ZnSe—attenuated total reflectance (ATR) accessory. The compounds were solved in a small amount of solvent (MeOH for the diols, CHCl3 for the lipids), and the resulted solutions were left to evaporate to dryness on the surface of the ZnSe crystals of the ATR accessory. The NMR spectra were recorded at ≈303 K with a Varian Inova spectrometer equipped with a 5 mm indirect detection probe, operating at 500 MHz for ^1H-NMR and at 125 MHz for ^13C-NMR. Chemical shifts are reported as δ values, using TMS as internal standard for proton spectra and the solvent resonance for carbon spectra. Assignments were made based on signal intensity, selective decoupling, COSY (^1H-^1H) and HETCOR (^1H-^13C) sequences. Elemental analyses were performed by combustion, using a Perkin Elmer 2400 Series II CHNS analyser.
Dioleoylphosphatidylethanolamine (DOPE), cholesterol (CHOL), N-(2,3-dioleoyloxypropyl)-N,N,N-trimethylammonium chloride (DOTAP) were commercial products. The purity of the lipids was checked by thin layer chromatography and also by differential scanning calorimetry (DSC), which was also used for determining the critical temperature Tc. For the preparation of the liposomes a protocol optimized for this type of compounds was adopted as follows. The cationic lipid (with or without helper lipid) was dissolved in chloroform/methanol (2/1, v/v) to reach a final concentration of 1 mM for the charged species. From this stock solution 50 μL were aliquoted in a 1 mL tube and the solvent was evaporated in a SpeedVac evaporator, under vacuum, for 1 h. The dried lipid film was prepared by removing the traces of organic solvent in a dessicator, over Drierite®, under vacuum, overnight. The film was hydrated with 500 μL sterile phosphate buffer saline (PBS) the tube was purged with sterile N2, and vortexed for 1 minute. The liposomes were generated by sonicating the tube in a water bath sonicator for 5-30 minutes at 62° C. and at 37° C. for DOTAP. After sonication the preparations were allowed to reach room temperature.
Materials and Methods. Melting points for the diols, acetates and ketals were determined on a Boetius heating plate microscope and are uncorrected. For the cationic lipids 21 and 25 the phase transition temperature Tc was determined by differential scanning calorimetry (DSC), using a TA-Instruments Q100 DSC, and a heating rate of 5° C./minute. The IR spectra were recorded on a Nicolet Avatar 360 FTIR spectrophotometer, in the range 650-4000 cm^−1, using a ZnSe—attenuated total reflectance (ATR) accessory. The compounds were solved in a small amount of solvent (MeOH for the diols, CHCl3 for the esters), the resulted solutions being left to evaporate to dryness on the surface of the ZnSe crystals of the ATR accessory. This technique was imposed by the poor results obtained in transmission mode for some of the compounds, due to the lack of crystallization, hygroscopicity and other problems related with working with KBr pellets. The NMR spectra were recorded at ≈303 K with a Varian Gemini 300BB spectrometer operating at 300 MHz for ^1H and at 75 MHz for ^13C. Chemical shifts are reported as δ values, using TMS as internal standard for proton spectra and the solvent resonance for carbon spectra: 77.00 ppm in CDCl3, 39.50 ppm in DMSO-d6, the line from 123.50 ppm in pyridine-d5, 62.80 ppm in nitromethane-d3, 30.10 ppm in dimethylformamide-d7. Assignments were made based on signal intensity, selective decoupling and COSY (^1H-^1H) and HETCOR (^1H-^13C) sequences. Nitrogen elemental analysis was performed by combustion, mixing the samples with small amounts of quartz sand.

| SMILES | Tc (critical temperature), Pure | Tc (critical temperature), With cholesterol (1:1 molar ratio) | Tc (phase transition temperature) |
| --- | --- | --- | --- |
| CCCCCCCCCCCCCC(=O)Oc1ccc(CC[n+]2c(C)cc(C)cc2C)cc1OC(=O)CCCCCCCCCCCCC.F[P-](F)(F)(F)(F)F [Lipid 7AMyr, 1-(3,4-dimyristoyloxyphenylethyl)-2,4,6-trimethylpyridinium hexafluorophosphate] | 141.2 °C | 125.8 °C |  |
| CCCCCCCCCCCCCCCC(=O)OCC(C[n+]1c(-c2ccccc2)cc(-c2ccccc2)cc1-c1ccccc1)OC(=O)CCCCCCCCCCCCCCC.[O-][Cl+3]([O-])([O-])[O-] (stereo not drawn) [Lipid 21BaP, 1-(2,3-Dipalmitoyloxypropyl)-2,4,6-triphenylpyridinium perchlorate] |  |  | 134 °C |
| CCCCCCCCCCCCCCCCCC(=O)OCC(C[n+]1c(C)cc(C)cc1C)OC(=O)CCCCCCCCCCCCCCCCC.F[P-](F)(F)(F)(F)F (stereo not drawn) [Lipid 3ASte, 1-(2,3-distearoyloxypropyl)-2,4,6-trimethylpyridinium hexafluorophosphate] | 122.5 °C | 112.7 °C |  |
| CCCCCCCC/C=C\CCCCCCCC(=O)Oc1ccc(CC[n+]2c(C)cc(C)cc2C)cc1OC(=O)CCCCCCC/C=C\CCCCCCCC.F[P-](F)(F)(F)(F)F [Lipid 7AOle, 1-(3,4-dioleoyloxyphenylethyl)-2,4,6-trimethylpyridinium hexafluorophosphate] | 106.8 °C | 97.3 °C |  |
| CCCCCCCCCCCCCCCCCC(=O)OCC(C[n+]1c(C)cc(C)cc1C)OC(=O)CCCCCCCCCCCCCCCCC.F[B-](F)(F)F (stereo not drawn) [Lipid 21AbS, 1-(2,3-Distearoyloxypropyl)-2,4,6-trimethylpyridinium tetrafluoroborate] |  |  | 103 °C |
| CCCCCCCCCCCCCCCCCC(=O)Oc1ccc(CC[n+]2c(C)cc(C)cc2C)cc1OC(=O)CCCCCCCCCCCCCCCCC.F[P-](F)(F)(F)(F)F [Lipid 7ASte, 1-(3,4-distearoyloxyphenylethyl)-2,4,6-trimethylpyridinium hexafluorophosphate] | 138.8 °C | 123.9 °C |  |
| CCCCCCCCCCCCCCCC(=O)OCC(C[n+]1c(C)cc(C)cc1C)OC(=O)CCCCCCCCCCCCCCC.F[B-](F)(F)F (stereo not drawn) [Lipid 21AbP, 1-(2,3-Dipamitoyloxypropyl)-2,4,6-trimethylpyridinium tetrafluoroborate] |  |  | 100 °C |
| CCCCCCCCCCCCCCCC(=O)OCC(C[n+]1c(C)cc(C)cc1C)OC(=O)CCCCCCCCCCCCCCC.F[P-](F)(F)(F)(F)F (stereo not drawn) [Lipid 3APal, 1-(2,3-dipamitoyloxypropyl)-2,4,6-trimethylpyridinium hexafluorophosphate] | 123.5 °C | 114.0 °C |  |
| CCCCCCCCCCCCCCCC(=O)OCC(C[n+]1c(C)cc(C)cc1C)OC(=O)CCCCCCCCCCCCCCC.[O-][Cl+3]([O-])([O-])[O-] (stereo not drawn) [Lipid 21AaP, 1-(2,3-Dipamitoyloxypropyl)-2,4,6-trimethylpyridinium perchlorate] |  |  | 106 °C |
| CCCCCCCCCCCCCCCCCC(=O)OCC(COC(=O)CCCCCCCCCCCCCCCCC)[n+]1c(C)cc(C)cc1C.[O-][Cl+3]([O-])([O-])[O-] [Lipid 25AaS, 1-(1,3-Distearoyloxypropane-2-yl)-2,4,6-trimethylpyridinium perchlorate] |  |  | 70 °C |
| CCCCCCCCCCCCCCCCCC(=O)OCC(COC(=O)CCCCCCCCCCCCCCCCC)[n+]1c(C)cc(C)cc1C.F[B-](F)(F)F [Lipid 25AbS, 1-(1,3-Distearoyloxypropane-2yl)-2,4,6-trimethylpyridinium tetrafluoroborate] |  |  | 73 °C |
| CCCCCCCCCC(=O)Oc1ccc(CC[n+]2c(C)cc(C)cc2C)cc1OC(=O)CCCCCCCCC.F[P-](F)(F)(F)(F)F [Lipid 7ACpc, 1-(3,4-didecanoyloxyphenylethyl)-2,4,6-trimethylpyridinium hexafluorophosphate] | 140.0 °C | 129.2 °C |  |
| CCCCCCCCCCCCCCCC(=O)OCC(COC(=O)CCCCCCCCCCCCCCC)[n+]1c(-c2ccccc2)cc(-c2ccccc2)cc1-c1ccccc1.[O-][Cl+3]([O-])([O-])[O-] [Lipid 25BaP, 1-(1,3-Dipalmitoyloxypropane-2-yl)-2,4,6-triphenylpyridinium perchlorate] |  |  | 125 °C |
| CCCCCCCC/C=C\CCCCCCCC(=O)OCC(COC(=O)CCCCCCC/C=C\CCCCCCCC)[n+]1c(C)cc(C)cc1C.[O-][Cl+3]([O-])([O-])[O-] [Lipid 25AaO, 1-(1,3-Dioleoyloxypropane-2-yl)-2,4,6-trimethylpyridinium perchlorate] |  |  | 48 °C |
| CCCCCCCC(=O)Oc1ccc(CC[n+]2c(C)cc(C)cc2C)cc1OC(=O)CCCCCCC.F[P-](F)(F)(F)(F)F [Lipid 7ACpy, 1-(3,4-dioctanoyloxyphenylethyl)-2,4,6-trimethylpyridinium hexafluorophosphate] | 134.1 °C | 127.3 °C |  |
| CCCCCCCCCCCCCCCCCC(=O)OCC(COC(=O)CCCCCCCCCCCCCCCCC)[n+]1c(C)cc(C)cc1C.F[P-](F)(F)(F)(F)F [Lipid 5ASte, 1-(1,3-distearoyloxypropane-2-yl)-2,4,6-trimethylpyridinium hexafluorophosphate] | 79.6 °C | 66.1 °C |  |
| CCCCCCCCCCCCCCCC(=O)Oc1ccc(CC[n+]2c(C)cc(C)cc2C)cc1OC(=O)CCCCCCCCCCCCCCC.F[P-](F)(F)(F)(F)F [Lipid 7APal, 1-(3,4-dipalmitoyloxyphenylethyl)-2,4,6-trimethylpyridinium hexafluorophosphate] | 140.0 °C | 124.1 °C |  |
| CCCCCCCCCCCC(=O)OCC(COC(=O)CCCCCCCCCCC)[n+]1c(C)cc(C)cc1C.F[P-](F)(F)(F)(F)F [Lipid 5ALau, 1-(1,3-dilauroyloxypropane-2-yl)-2,4,6-trimethylpyridinium hexafluorophosphate] | 58.2 °C | 41.9 °C |  |
| CCCCCCCC/C=C\CCCCCCCC(=O)OCC(C[n+]1c(C)cc(C)cc1C)OC(=O)CCCCCCC/C=C\CCCCCCCC.[O-][Cl+3]([O-])([O-])[O-] (stereo not drawn) [Lipid 21AaO, 1-(2,3-Dioleoyloxypropyl)-2,4,6-trimethylpyridinium perchlorate] |  |  | 57 °C |
| CCCCCCCCCCCCCCCC(=O)OCC(COC(=O)CCCCCCCCCCCCCCC)[n+]1c(C)cc(C)cc1C.F[P-](F)(F)(F)(F)F [Lipid 5APal, 1-(1,3-dipamitoyloxypropane-2-yl)-2,4,6-trimethylpyridinium hexafluorophosphate] | 75.5 °C | 61.0 °C |  |
| CCCCCCCCCCCCCCCC(=O)OCC(COC(=O)CCCCCCCCCCCCCCC)[n+]1c(C)cc(C)cc1C.[O-][Cl+3]([O-])([O-])[O-] [Lipid 25AaP, 1-(1,3-Dipamitoyloxypropane-2-yl)-2,4,6-trimethylpyridinium perchlorate] |  |  | 66 °C |
| CCCCCCCC/C=C\CCCCCCCC(=O)OCC(COC(=O)CCCCCCC/C=C\CCCCCCCC)[n+]1c(C)cc(C)cc1C.F[B-](F)(F)F [Lipid 25AbO, 1-(1,3-Dioleoyloxypropane-2-yl)-2,4,6-trimethylpyridinium tetrafluoroborate] |  |  | 43 °C |
